The values that follow come from patent publication US11613538B2, “Method of inhibiting or reducing a viral infection” (PTC Therapeutics, Inc., priority 2009, dated 2023).

For the test, the system named is hypoxia-induced VEGF production in HeLa cells. The test is described as follows: cells. The class given is cell-based, human. The settings on record: Homo sapiens, HeLa.
In general, EC50 refers to the concentration needed to bring the measured effect to its halfway point. The low end stands for higher potency in that assay, the high end for lower potency in that assay. On to `O=C(Oc1ccc(F)cc1)N1CCc2c([nH]c3cc(Br)ccc23)C1c1ccc(OC(F)F)cc1` (centres unmarked) [Compound 1450], for which the EC50 fell in the range of 40 to 200 nM.

For `COc1ccc(OC(=O)N2CCc3c([nH]c4cc(Cl)ccc34)C2c2ccc(OC)cc2)cc1` (centres unmarked) [Compound 1455], the 50% effective concentration (EC50) is above 1000 nM.

Consider `CC#CCOC(=O)N1CCc2c([nH]c3cc(F)ccc23)C1c1ccc(C)cc1` (centres unmarked) [Compound 1456], for which the EC50 was above 1000 nM.

`Cc1ccc(C2c3[nH]c4cc(F)ccc4c3CCN2C(=O)Oc2ccc(Cl)cc2)cc1` (centres unmarked) [Compound 1457] returned an EC50 of 200 to 1000 nM.

The compound `COc1ccc(OC(=O)N2CCc3c([nH]c4cc(F)ccc34)C2c2ccc(F)cc2)cc1` (centres unmarked) [Compound 1458] had an EC50 above 1000 nM.

With `O=C(Oc1ccc(Cl)cc1)N1CCc2c([nH]c3cc(F)ccc23)C1c1ccc(F)cc1` (centres unmarked) [Compound 1459], the EC50 was above 1000 nM.

Compound `COc1ccc(OC(=O)N2CCc3c([nH]c4cc(F)ccc34)C2c2ccc(OC)cc2)cc1` (centres unmarked) [Compound 1460] returned an EC50 above 1000 nM.

In turn, `COc1ccc(C2c3[nH]c4cc(F)ccc4c3CCN2C(=O)Oc2ccc(Cl)cc2)cc1` (centres unmarked) [Compound 1461] gave an EC50 of 200 to 1000 nM.

As to `COc1ccc(OC(=O)N2CCc3c([nH]c4cc(F)ccc34)C2c2ccc(OC(F)F)cc2)cc1` (centres unmarked) [Compound 1462], the EC50 lay within 200 to 1000 nM.

Turning to `O=C(Oc1ccc(Cl)cc1)N1CCc2c([nH]c3cc(F)ccc23)C1c1ccc(OC(F)F)cc1` (centres unmarked) [Compound 1463], the EC50 was 40 to 200 nM.

`CCOC(=O)N1CCc2c([nH]c3ccc(Cl)cc23)C1c1ccc(OCC(O)CNC(=O)CC)cc1` (centres unmarked) [Compound 1464] came in with an EC50 of 8 to 40 nM.

For `CCOC(=O)N1CCc2c([nH]c3ccc(Cl)cc23)C1c1ccc(OCC(O)CNC(=O)C(C)C)cc1` (centres unmarked) [Compound 1465], the EC50 is 8 to 40 nM.

`CCOC(=O)N1CCc2c([nH]c3ccc(Cl)cc23)C1c1ccc(OCC(O)CNC(=O)C2CC2)cc1` (centres unmarked) [Compound 1466] showed an EC50 of 8 to 40 nM.

In the case of `CCOC(=O)N1CCc2c([nH]c3ccc(Cl)cc23)C1c1ccc(OCC(O)CNC(=O)c2ccncc2)cc1` (centres unmarked) [Compound 1467], the EC50 was below 8 nM.

Compound `CCOC(=O)N1CCc2c([nH]c3ccc(Cl)cc23)C1c1ccc(OCC(O)CNC(=O)c2cccnc2)cc1` (centres unmarked) [Compound 1468] came in with an EC50 below 8 nM.

In turn, `CCOC(=O)N1CCc2c([nH]c3ccc(Cl)cc23)C1c1ccc(OCC(O)CNC(=O)c2ccccn2)cc1` (centres unmarked) [Compound 1469] showed a 50% effective concentration (EC50) below 8 nM.

The compound `CCOC(=O)NCC(O)COc1ccc(C2c3[nH]c4ccc(Cl)cc4c3CCN2C(=O)OCC)cc1` (centres unmarked) [Compound 1470] returned an EC50 below 8 nM.

For `CCCOC(=O)NCC(O)COc1ccc(C2c3[nH]c4ccc(Cl)cc4c3CCN2C(=O)OCC)cc1` (centres unmarked) [Compound 1471], the EC50 was below 8 nM.

In the case of `CCOC(=O)N1CCc2c([nH]c3ccc(Cl)cc23)C1c1ccc(OCC(O)CNC(=O)OCCOC)cc1` (centres unmarked) [Compound 1472], the EC50 was below 8 nM.

The compound `CCOC(=O)N1CCc2c([nH]c3ccc(Cl)cc23)C1c1ccc(OCC(O)CNS(=O)(=O)CC)cc1` (centres unmarked) [Compound 1473] registered an EC50 below 8 nM.

On to `CCOC(=O)N1CCc2c([nH]c3ccc(Cl)cc23)C1c1ccc(OCC(O)CNS(=O)(=O)C(C)C)cc1` (centres unmarked) [Compound 1474], for which the EC50 lay in the range of 8 to 40 nM.

As for `CCOC(=O)N1CCc2c([nH]c3ccc(Cl)cc23)C1c1ccc(OCC(O)CNS(=O)(=O)C2CC2)cc1` (centres unmarked) [Compound 1475], the EC50 was below 8 nM.

On to `O=C(Oc1ccc(Cl)cc1)N1CCc2c([nH]c3ccc(Cl)cc23)C1c1ccc(OCCCN2CC[C@@H](O)C2)cc1` (some centres unmarked) [Compound 1476], for which the EC50 was 40 to 200 nM.

With `COc1ccc(C2c3[nH]c4ccc(Cl)cc4c3CCN2C(=S)Oc2ccc(C)cc2)cn1` (centres unmarked) [Compound 1477], the EC50 was in the range of 8 to 40 nM.

`COc1ccc(OC(=O)N2CCc3c([nH]c4ccc(Cl)cc34)C2c2ccc(OC)nc2)cc1` (centres unmarked) [Compound 1478] displayed an EC50 of 40 to 200 nM.

For `COc1ccc(C2c3[nH]c4ccc(Cl)cc4c3CCN2C(=O)Oc2ccc(Cl)cc2)cn1` (centres unmarked) [Compound 1479], the EC50 was 8 to 40 nM.

`CCOC(=O)N1CCc2c([nH]c3ccc(Cl)cc23)C1c1ccc(OC)nc1` (centres unmarked) [Compound 1480] registered an EC50 of 8 to 40 nM.

With `COc1ccc(C2c3[nH]c4ccc(Cl)cc4c3CCN2C(=O)OCC(C)C)cn1` (centres unmarked) [Compound 1481], the EC50 lay in the range of 8 to 40 nM.

Compound `CCOC(=O)N1CCc2c([nH]c3ccc(SC)cc23)C1c1ccc(OC)cc1` (centres unmarked) [Compound 1482] came in with an EC50 of 40 to 200 nM.

The compound `COc1ccc(C2c3[nH]c4ccc(SC)cc4c3CCN2C(=O)Oc2ccc(Cl)cc2)cc1` (centres unmarked) [Compound 1483] came in with an EC50 of 8 to 40 nM.

In the case of `COc1ccc(OC(=O)N2CCc3c([nH]c4ccc(SC)cc34)C2c2ccc(OC)cc2)cc1` (centres unmarked) [Compound 1484], the EC50 is 40 to 200 nM.

`COc1ccc(C2c3[nH]c4ccc(SC)cc4c3CCN2C(=S)Oc2ccc(F)cc2)cc1` (centres unmarked) [Compound 1486] showed an EC50 of 8 to 40 nM.

As to `COc1ccc(C2NCCc3c2[nH]c2ccc(SC)cc32)cc1` (centres unmarked) [Compound 1487], the EC50 is above 1000 nM.

`CCOC(=O)N1CCc2c([nH]c3ccc([S+](C)[O-])cc23)C1c1ccc(OC)cc1` (centres unmarked) [Compound 1488] had an EC50 above 1000 nM.

For `COc1ccc(C2c3[nH]c4ccc([S+](C)[O-])cc4c3CCN2C(=O)Oc2ccc(Cl)cc2)cc1` (centres unmarked) [Compound 1489], the concentration for a half-maximal effect (EC50) is above 1000 nM.

Regarding `COc1ccc(OC(=O)N2CCc3c([nH]c4ccc([S+](C)[O-])cc34)C2c2ccc(OC)cc2)cc1` (centres unmarked) [Compound 1490], the EC50 is above 1000 nM.

On to `COc1ccc(C2c3[nH]c4ccc([S+](C)[O-])cc4c3CCN2C(=O)Oc2ccc(F)cc2)cc1` (centres unmarked) [Compound 1491], for which the EC50 is above 1000 nM.

As for `CCC(C)OC(=O)N1CCc2c([nH]c3ccc([S+](C)[O-])cc23)C1c1ccc(OC)cc1` (centres unmarked) [Compound 1493], the EC50 was above 1000 nM.

Regarding `COc1ccc(C2c3[nH]c4ccc([S+](C)[O-])cc4c3CCN2C(=O)OC(C)(C)C)cc1` (centres unmarked) [Compound 1494], the EC50 is above 1000 nM.

`COc1ccc(C2NCCc3c2[nH]c2ccc([S+](C)[O-])cc32)cc1` (centres unmarked) [Compound 1495] registered an EC50 above 1000 nM.

`CCOC(=O)N1CCc2c([nH]c3ccc(S(C)(=O)=O)cc23)C1c1ccc(OC)cc1` (centres unmarked) [Compound 1496]: the EC50 is above 1000 nM.

The compound `COc1ccc(C2c3[nH]c4ccc(S(C)(=O)=O)cc4c3CCN2C(=O)Oc2ccc(Cl)cc2)cc1` (centres unmarked) [Compound 1497] registered an EC50 above 1000 nM.

`COc1ccc(OC(=O)N2CCc3c([nH]c4ccc(S(C)(=O)=O)cc34)C2c2ccc(OC)cc2)cc1` (centres unmarked) [Compound 1498] came in with an EC50 above 1000 nM.

`COc1ccc(C2c3[nH]c4ccc(S(C)(=O)=O)cc4c3CCN2C(=O)Oc2ccc(F)cc2)cc1` (centres unmarked) [Compound 1499] yielded an EC50 above 1000 nM.

Compound `COc1ccc(C2c3[nH]c4ccc(S(C)(=O)=O)cc4c3CCN2C(=S)Oc2ccc(F)cc2)cc1` (centres unmarked) [Compound 1500] displayed an EC50 above 1000 nM.

In turn, `COc1ccc(C2c3[nH]c4ccc(S(C)(=O)=O)cc4c3CCN2C(=O)OC(C)(C)C)cc1` (centres unmarked) [Compound 1502] came in with an EC50 above 1000 nM.

As for `COc1ccc(C2c3[nH]c4ccc(S(C)(=O)=O)cc4c3CCN2C(=S)Oc2ccc(C)cc2)cc1` (centres unmarked) [Compound 1503], the EC50 was above 1000 nM.

`COc1ccc(C2NCCc3c2[nH]c2ccc(S(C)(=O)=O)cc32)cc1` (centres unmarked) [Compound 1504] came in with an EC50 above 1000 nM.

In turn, `COc1ccc(C2c3[nH]c4ccc(Cl)cc4c3CCN2C(=O)[C@H](Cc2ccccc2)NC(C)=O)cc1` (some centres unmarked) [Compound 1505] gave an EC50 above 1000 nM.

Consider `CC(=O)N[C@@H](Cc1ccccc1)C(=O)N1CCc2c([nH]c3ccc(Cl)cc23)C1c1ccc(OCCN2CCOCC2)cc1` (some centres unmarked) [Compound 1506], for which the EC50 was above 1000 nM.

Compound `O=C(/C=C/c1ccccc1)N1CCc2c([nH]c3ccc(Cl)cc23)C1c1ccc(OCCCn2cncn2)cc1` (centres unmarked) [Compound 1508] displayed an EC50 of 8 to 40 nM.

In the case of `C/C=C/C(=O)N1CCc2c([nH]c3ccc(Cl)cc23)C1c1ccc(OCCCN2CCOCC2)cc1` (centres unmarked) [Compound 1509], the EC50 lay in the range of 40 to 200 nM.

`C/C=C/C(=O)N1CCc2c([nH]c3ccc(Cl)cc23)C1c1ccc(OCCCn2cncn2)cc1` (centres unmarked) [Compound 1510]: the EC50 lay within 8 to 40 nM.

`CCOC(=O)N1CCc2c([nH]c3ccc(C#N)cc23)C1c1ccc(OC)cc1` (centres unmarked) [Compound 1512] returned an EC50 of 200 to 1000 nM.

On to `COc1ccc(C2c3[nH]c4ccc(C#N)cc4c3CCN2C(=O)Oc2ccc(Cl)cc2)cc1` (centres unmarked) [Compound 1513], for which the EC50 is 40 to 200 nM.

The compound `COc1ccc(C2c3[nH]c4ccc(C#N)cc4c3CCN2C(=O)Oc2ccc(F)cc2)cc1` (centres unmarked) [Compound 1514] registered an EC50 of 40 to 200 nM.

Turning to `COc1ccc(C2c3[nH]c4ccc(C#N)cc4c3CCN2C(=S)Oc2ccc(F)cc2)cc1` (centres unmarked) [Compound 1515], the EC50 fell in the range of 40 to 200 nM.

`COc1ccc(OC(=O)N2CCc3c([nH]c4ccc(C#N)cc34)C2c2ccc(OC)cc2)cc1` (centres unmarked) [Compound 1516] displayed an EC50 of 200 to 1000 nM.

`COc1ccc(C2NCCc3c2[nH]c2ccc(C#N)cc32)cc1` (centres unmarked) [Compound 1519] registered an EC50 above 1000 nM.

Turning to `CCOC(=O)N1CCc2c([nH]c3cccc(Br)c23)C1c1ccc(OC)cc1` (centres unmarked) [Compound 1521], the EC50 is 200 to 1000 nM.

In turn, `COc1ccc(C2c3[nH]c4cccc(Br)c4c3CCN2C(=O)OCCF)cc1` (centres unmarked) [Compound 1522] yielded an EC50 of 200 to 1000 nM.

`CC#CCOC(=O)N1CCc2c([nH]c3cccc(Br)c23)C1c1ccc(OC)cc1` (centres unmarked) [Compound 1523] returned an EC50 of 40 to 200 nM.

In turn, `COc1ccc(C2c3[nH]c4cccc(Br)c4c3CCN2C(=O)Oc2ccc(F)cc2)cc1` (centres unmarked) [Compound 1524] had an EC50 of 40 to 200 nM.

`COc1ccc(C2c3[nH]c4cccc(Br)c4c3CCN2C(=O)Oc2ccc(Cl)cc2)cc1` (centres unmarked) [Compound 1525] yielded an EC50 of 40 to 200 nM.

As for `COc1ccc(C2c3[nH]c4cccc(Br)c4c3CCN2C(=O)Oc2ccc(Br)cc2)cc1` (centres unmarked) [Compound 1526], the EC50 lay in the range of 40 to 200 nM.

Turning to `COc1ccc(OC(=O)N2CCc3c([nH]c4cccc(Br)c34)C2c2ccc(OC)cc2)cc1` (centres unmarked) [Compound 1527], the EC50 lay in the range of 200 to 1000 nM.

In turn, `COc1ccc(C2c3[nH]c4cccc(Br)c4c3CCN2C(=O)Oc2ccccc2Cl)cc1` (centres unmarked) [Compound 1528] had an EC50 above 1000 nM.

Take `COc1ccc(C2c3[nH]c4cccc(Cl)c4c3CCN2C(=O)OCCF)cc1` (centres unmarked) [Compound 1529]: the EC50 fell in the range of 200 to 1000 nM.
